Patent publication US11166944B2 (AI Therapeutics, priority 2014, dated 2021)
Values belong to the compound of their own block, whether it stands above or below them.

How the values were obtained:
[1] = tested on: renal clear cell carcinoma cell line RCC-JF; experiment: Antiproliferative single treatment study (CellTiterGlo, 120 h); type: cell-based; conditions: read-out: IC50 (Avg., n=2)
Procedure: (§1) All drug dilutions were made up as a 2× stock and 50 μL added to appropriate wells. Cells were treated for 120 h before viability was assessed using CellTiterGlo® (Promega) where the relative luminescence of untreated cells was set to 100% viability and each drug concentration expressed as a percentage of untreated cells. EC50 values were determined using GraphPad Prism (GraphPad Software, Inc). Briefly, raw data was log transformed and then analyzed using nonlinear regression (curve fit) where the data were constrained (bottom=0, top=100).

[2] = tested on: renal clear cell carcinoma cell line A704; experiment: as above; type: cell-based; conditions: Homo sapiens, A704, 120 h, read-out: IC50 (Avg., n=2)
Procedure: as §1

[3] = tested on: renal clear cell carcinoma cell line RCC-ER; experiment: as above; type: cell-based; conditions: read-out: IC50 (Avg., n=2)
Procedure: as §1

[4] = tested on: renal clear cell carcinoma cell line RCC-FG2; experiment: as above; type: cell-based; conditions: read-out: IC50 (Avg., n=2); RCC-FG2, 120 h
Procedure: as §1

[5] = tested on: renal clear cell carcinoma cell line 786-O; experiment: as above; type: cell-based; conditions: Homo sapiens, 786-0, read-out: IC50 (Avg., n=2)
Procedure: as §1

[6] = tested on: renal clear cell carcinoma cell line 769-P; experiment: as above; type: cell-based; conditions: Homo sapiens, read-out: IC50 (Avg., n=2)
Procedure: as §1

[7] = tested on: renal clear cell carcinoma cell line RCC-MF; experiment: as above; type: cell-based; conditions: read-out: IC50 (Avg., n=2)
Procedure: as §1

[8] = tested on: renal clear cell carcinoma cell line RCC-JW; experiment: as above; type: cell-based; conditions: read-out: IC50 (Avg., n=2)
Procedure: as §1

Vac14 = biological target: T1, Vac14 (Homo sapiens, UniProt Q08AM6); experiment: Chemical capture mass spectrometry (CCMS) in H4 whole cell lysate; type: binding; conditions: apilimod as competitor ligand
T1 construct: endogenous in cells; host or cells: H4 human neuroglioma cells (whole cell lysate)
T1 sequence (Q08AM6 whole entry): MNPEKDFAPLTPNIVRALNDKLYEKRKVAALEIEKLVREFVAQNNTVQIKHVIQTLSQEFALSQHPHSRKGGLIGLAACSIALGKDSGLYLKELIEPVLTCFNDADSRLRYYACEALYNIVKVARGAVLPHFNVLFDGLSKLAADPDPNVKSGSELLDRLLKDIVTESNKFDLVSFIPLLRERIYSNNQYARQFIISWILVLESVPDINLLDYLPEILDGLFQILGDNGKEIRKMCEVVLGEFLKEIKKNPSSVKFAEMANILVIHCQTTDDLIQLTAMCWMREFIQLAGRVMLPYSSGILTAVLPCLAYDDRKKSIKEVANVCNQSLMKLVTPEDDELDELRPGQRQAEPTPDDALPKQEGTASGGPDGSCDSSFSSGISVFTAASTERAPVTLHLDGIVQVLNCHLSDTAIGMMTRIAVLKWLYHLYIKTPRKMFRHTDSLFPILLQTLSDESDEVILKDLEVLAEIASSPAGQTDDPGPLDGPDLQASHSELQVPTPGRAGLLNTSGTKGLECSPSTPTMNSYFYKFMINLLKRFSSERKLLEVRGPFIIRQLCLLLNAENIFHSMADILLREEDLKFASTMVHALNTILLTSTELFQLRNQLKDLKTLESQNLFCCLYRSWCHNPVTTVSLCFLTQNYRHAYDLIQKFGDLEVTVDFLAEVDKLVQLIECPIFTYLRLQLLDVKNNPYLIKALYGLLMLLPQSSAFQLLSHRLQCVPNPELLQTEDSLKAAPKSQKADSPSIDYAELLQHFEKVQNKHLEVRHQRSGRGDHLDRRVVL
T1 sequence (Q9Y2I7 2-2098 partner): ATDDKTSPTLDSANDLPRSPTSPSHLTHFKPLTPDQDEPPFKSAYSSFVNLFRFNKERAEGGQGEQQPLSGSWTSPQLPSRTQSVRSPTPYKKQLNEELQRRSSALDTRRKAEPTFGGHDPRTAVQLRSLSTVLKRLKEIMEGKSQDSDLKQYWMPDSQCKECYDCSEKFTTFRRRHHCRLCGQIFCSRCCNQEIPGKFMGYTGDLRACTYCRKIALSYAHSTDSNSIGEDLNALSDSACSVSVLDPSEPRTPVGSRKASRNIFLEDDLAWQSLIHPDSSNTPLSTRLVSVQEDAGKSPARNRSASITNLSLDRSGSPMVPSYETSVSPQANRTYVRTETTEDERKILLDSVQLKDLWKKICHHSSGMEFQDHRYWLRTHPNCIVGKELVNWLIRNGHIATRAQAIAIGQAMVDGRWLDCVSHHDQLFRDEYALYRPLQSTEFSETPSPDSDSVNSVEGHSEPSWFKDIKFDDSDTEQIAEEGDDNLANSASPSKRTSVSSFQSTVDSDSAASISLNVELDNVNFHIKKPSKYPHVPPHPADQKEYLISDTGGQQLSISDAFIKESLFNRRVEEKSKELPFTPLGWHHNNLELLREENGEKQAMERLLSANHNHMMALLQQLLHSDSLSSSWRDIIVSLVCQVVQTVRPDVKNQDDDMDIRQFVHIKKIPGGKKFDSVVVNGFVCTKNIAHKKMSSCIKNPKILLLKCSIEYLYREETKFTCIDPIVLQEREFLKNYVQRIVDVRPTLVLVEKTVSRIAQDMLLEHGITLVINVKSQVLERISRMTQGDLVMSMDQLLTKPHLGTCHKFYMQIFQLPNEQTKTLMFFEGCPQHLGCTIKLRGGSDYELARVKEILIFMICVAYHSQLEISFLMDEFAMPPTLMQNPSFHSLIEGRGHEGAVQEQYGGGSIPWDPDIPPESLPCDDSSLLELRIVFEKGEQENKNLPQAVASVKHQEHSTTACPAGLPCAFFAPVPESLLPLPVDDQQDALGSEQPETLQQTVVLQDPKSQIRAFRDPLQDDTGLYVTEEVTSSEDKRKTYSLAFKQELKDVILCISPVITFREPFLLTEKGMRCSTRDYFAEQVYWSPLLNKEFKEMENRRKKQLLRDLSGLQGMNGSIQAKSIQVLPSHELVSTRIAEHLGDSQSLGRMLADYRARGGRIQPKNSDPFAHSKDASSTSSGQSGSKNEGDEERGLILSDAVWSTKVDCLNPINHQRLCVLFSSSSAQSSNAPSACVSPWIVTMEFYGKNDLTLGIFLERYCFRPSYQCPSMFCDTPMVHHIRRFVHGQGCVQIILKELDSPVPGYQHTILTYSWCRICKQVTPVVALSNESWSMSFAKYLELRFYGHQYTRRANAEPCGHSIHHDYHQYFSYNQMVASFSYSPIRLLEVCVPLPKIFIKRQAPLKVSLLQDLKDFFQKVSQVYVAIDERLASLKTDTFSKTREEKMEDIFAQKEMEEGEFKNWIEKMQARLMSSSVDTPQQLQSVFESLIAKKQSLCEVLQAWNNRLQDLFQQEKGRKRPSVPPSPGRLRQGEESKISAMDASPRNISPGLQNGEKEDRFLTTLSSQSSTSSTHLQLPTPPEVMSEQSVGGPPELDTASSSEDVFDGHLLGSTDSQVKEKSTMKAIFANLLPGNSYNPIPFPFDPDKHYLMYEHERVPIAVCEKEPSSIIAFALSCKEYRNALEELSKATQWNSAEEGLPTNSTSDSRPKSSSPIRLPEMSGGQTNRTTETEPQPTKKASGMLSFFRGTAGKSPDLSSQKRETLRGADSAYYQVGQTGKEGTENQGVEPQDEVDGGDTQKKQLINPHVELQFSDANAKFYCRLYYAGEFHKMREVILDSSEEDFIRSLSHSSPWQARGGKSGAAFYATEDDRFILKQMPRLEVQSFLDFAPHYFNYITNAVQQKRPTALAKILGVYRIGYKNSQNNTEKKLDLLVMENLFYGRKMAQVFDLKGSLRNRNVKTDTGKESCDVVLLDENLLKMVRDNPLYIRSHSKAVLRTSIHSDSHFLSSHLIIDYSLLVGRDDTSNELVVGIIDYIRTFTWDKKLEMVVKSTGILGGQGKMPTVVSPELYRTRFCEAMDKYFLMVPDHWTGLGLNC
Procedure: This work was performed at Caprotec Bioanalytics GmbH, Berlin Germany. See Michaelis et al., J. Med. Chem., 55 3934-44 (2012) and references cited therein.
Capture conditions were optimized in whole cell lysate from H4 (human neuroglioma) cancer cells, e.g. minimization of non-specific interactions of the proteins with capture compounds, concentration of reagents and proteins to obtain maximum binding of proteins and capture compounds, etc. […] These specific binders were further subjected to stringent data analysis criteria to determine specificity after unbiased data evaluation. Specific protein binders were ranked according to their fold change (FC) values in the capture experiments.

normal lung fibroblasts = experiment: Cytotoxicity in normal cells; type: cell-based; conditions: concentrations as high as 10 micromolar
Text: (§2) 35 cell lines were identified as sensitive to apilimod-induced cytotoxicity.

[9] = tested on: TRI-AML103 (TSC2 rescue AML) cells; experiment: 10-point dose response viability (CellTiter-Glo, 72 hours); type: cell-based; conditions: Homo sapiens; AML column, rescue line; average of two experiments
Text: (§3) See e.g., Zhang et al. J. Clin. Invest. 112, 1223-33, 2003. (2) ELT3-EV and ELT3-TSC2 lines were established from the ELT3 rat tumor cell line. The ELT3 line is an established rat tumor model for LAM/TSC. See e.g., Howe et al., Am. J. Path. 146, 1568-79, 1995. These cells harbor an inactivating mutation in TSC2, which leads to constitutive activation of the mTOR pathway. To develop an isogenic pair of cells ELT3 cells were infected with a retrovirus vector encoding the hygromycin antibiotic resistance gene (ELT3-EV) or the same retrovirus vector also encoding TSC2 (ELT3-TSC2). The ELT3-EV and ELT3-TSC2 line were then established by hygromycin selection. (3) TRI-AML102 and AML103 lines were established from a TSC2 null primary human AML sample provided by Dr. Elizabeth Henske (Fox Chase Cancer Center, Philadelphia, Pa.). The cells were infected with amphotropic retrovirus LXSN16E6E7 that encodes the HPV16 E6 and E7 open reading frames and neomycin resistance cassette. Cells were expanded and neomycin-selected. Individual clones were isolated and frozen down. The coding sequence for the human Telomerase gene (hTERT) with hygromycin resistance cassette (pLXSN hTERT-hyg plasmid) was stably expressed into a TSC2^−/− confirmed E6E7 AML clone using Fugene6 transfection reagent (Roche Applied Science, Indianapolis, Ind.). TRI-AML102 was generated by stable incorporation of a control zeomycin selection plasmid (pcDNA3.1-zeo), while TRI-AML103 expresses the human TSC2 cDNA pcDNA3.1-zeo plasmid. As a result of these engineering processes, both TRI102 and TRI103 are neomycin, hygromycin, and zeomycin resistant lines.
(§4) IC50 values were then calculated from the dose response curves using XLFIT (IDBS).

[10] = tested on: MEF-TSC2 (TSC2 rescue) cells; experiment: as above; type: cell-based; conditions: Mus musculus; MEF TSC2 rescue line; average of two experiments
Text: as §3, §4

MEF-EV (TSC2−/−) cells = experiment: as above; type: cell-based; conditions: Mus musculus, average of two experiments
Text: as §3, §4

ELT3-EV cells = experiment: as above; type: cell-based; conditions: Rattus norvegicus, average of two experiments, read-out: IC50 TSC2−/− (viability)
Text: as §3, §4

[11] = tested on: (TSC2+/−, p53−/−) MEF line; experiment: as above; type: cell-based; conditions: Mus musculus; MEF TSC2+/− p53−/− as counterpart of TSC2−/− p53−/−; average of two experiments; read-out: IC50 TSC2 rescue (viability)
Text: as §3, §4

[12] = tested on: (TSC2−/−, p53−/−) MEF line; experiment: as above; type: cell-based; conditions: Mus musculus, average of two experiments
Text: as §3, §4

[13] = tested on: TRI-AML102 (TSC2 null AML) cells; experiment: as above; type: cell-based; conditions: Homo sapiens; AML column; average of two experiments
Text: as §3, §4

ELT3-TSC2 cells = experiment: as above; type: cell-based; conditions: Rattus norvegicus; ELT3 rescue line; average of two experiments
Text: as §3, §4

U937 = conditions: cited from earlier work
HELA = conditions: cited from earlier work
[14] = tested on: peripheral blood mononuclear cells; conditions: cited from earlier work
H4 neuroglioma cell line = experiment: Autophagic vacuoles (Cyto-ID Autophagy detection kit); type: cell-based, human; conditions: H4 cells, 72 hours of treatment
Text: (§5) Autophagy was quantified using the Cyto-ID Autophagy detection kit (Enzo) according to manufacturer's directions.

[15] = tested on: patients with rheumatoid arthritis; conditions: Phase II; cited from earlier work
Jurkat = conditions: cited from earlier work
THP-1 = conditions: cited from earlier work
H4 = experiment: Cell viability dose response; type: cell-based; conditions: Homo sapiens, H4, Human neuroglioma
Text: as §2, §5
No statistically significant relationship was found with the sole exception of IL-23A (p=0.022). […] Importantly, the statistical significance of IL-23A expression in sensitive cancer lines appears to be driven entirely by just two colon cancer lines. Furthermore IL-23A expression is not a statistically significant predictor of sensitivity in Non-Hodgkin's B cell lymphoma.

IC50 [1]: 60 nM
IC50 [2]: 11 nM
IC50 [3]: 9 nM
IC50 [4]: 32 nM
IC50 [5]: 71 nM
IC50 [6]: 44 nM
IC50 [7]: 8 nM
IC50 [8]: 27 nM
SMILES: Cc1cccc(/C=N/Nc2cc(N3CCOCC3)nc(OCCc3ccccn3)n2)c1 [LAM-002]

log (FC) (Vac14; capture compound 0.1 μM): 6.2
log (FC) (Vac14; capture compound 0.5 μM): 5.6
log (FC) (Vac14; capture compound 1.0 μM): Inf.
log (FC) (Vac14; capture compound 2.0 μM): 3.9
SMILES: Cc1cccc(/C=N/Nc2cc(N3CCOCC3)nc(OCCc3ccccn3)n2)c1 [apilimod]
sensitivity to apilimod-induced cytotoxicity (normal lung fibroblasts): not sensitive
IC50 [9]: 132 nM
IC50 [10]: 20.1 nM
IC50 (MEF-EV (TSC2−/−) cells): 19.7 nM
IC50 (ELT3-EV cells): 13.7 nM
IC50 [11]: 70.7 nM
IC50 [12]: 28.8 nM
IC50 [13]: 117 nM
IC50 (ELT3-TSC2 cells): 16.1 nM
cytotoxicity (U937): not cytotoxic
cytotoxicity (HELA): not cytotoxic
cytotoxicity [14]: not cytotoxic
autophagy (autophagic vacuoles) (H4 neuroglioma cell line): induces autophagy in a dose-dependent manner
synovial IL-12 and IL-23 expression [15]: failed to alter synovial IL-12 and IL-23 expression
cytotoxicity (Jurkat): not cytotoxic
cytotoxicity (THP-1): not cytotoxic
IC50 (H4): 250 to 300 nM
